Test results taken from US9051418B2, “Glucose-PEG conjugates for reducing glucose transport into a cell” (Agency for Science, Technology and Research, priority 2008, dated 2015).
Entries after “also recorded” stand apart in the source; their conditions may differ.

Key:
GLUT1 = molecular target: T1, GLUT1 (Homo sapiens, UniProt P11166); test: Glucose competition binding assay with GPB fluorescence; details: MCF-7, 200 μM GPB, glucose 10-40 mM, 30 min, 37° C.
T1 construct: host or cells: MCF-7 human breast cancer cells
T1 sequence (P11166 1-492): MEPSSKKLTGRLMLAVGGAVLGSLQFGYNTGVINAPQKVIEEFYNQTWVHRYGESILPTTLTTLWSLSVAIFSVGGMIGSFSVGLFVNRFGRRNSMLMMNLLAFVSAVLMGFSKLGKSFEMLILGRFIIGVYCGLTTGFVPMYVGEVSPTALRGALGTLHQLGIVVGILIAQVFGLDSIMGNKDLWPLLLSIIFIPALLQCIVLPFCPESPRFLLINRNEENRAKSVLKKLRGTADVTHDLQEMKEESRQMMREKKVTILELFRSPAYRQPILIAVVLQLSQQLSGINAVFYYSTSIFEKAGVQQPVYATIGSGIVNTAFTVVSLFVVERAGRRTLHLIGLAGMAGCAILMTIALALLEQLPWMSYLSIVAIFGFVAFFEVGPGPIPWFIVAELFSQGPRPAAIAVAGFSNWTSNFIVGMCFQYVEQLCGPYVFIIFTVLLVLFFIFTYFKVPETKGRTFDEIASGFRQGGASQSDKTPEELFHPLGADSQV
Experimental: FIG. 6: Competition assay. […] The cells were incubated for 30 min at 37° C. The cells were washed with PBS, and the total intensity was measured using a plate reader.
FIG. 10: Binding of GBP to GLUT1. […] After 30 minutes the fluorescence intensity was measured using a plate reader.
The medium was removed and the cells were washed briefly with PBS twice. The fluorescence intensity was measured with an excitation of 488 nm and an emission of 522 nm. The fluorescence intensity was normalized by that of the control cells.
A glucose competition assay was carried out to confirm that the modified glucose-PEG is binding to the GLUT1 receptors. Increasing concentrations of un-modified glucose were used. […] After 30 minutes the fluorescence intensity was measured using a plate reader.

MCF-7 cells [1] = test: MTT cell viability assay, MCF-7 cells cultured 7 days with modified glucose; details: MCF-7, different concentrations
Experimental: MCF-7 cells were seeded onto 96-well plates at least 24 h prior to the experiment. […] MTT assay was performed to assess the cell viability. […] Cell viability was normalized with that of the control cells. […] The cells were treated as described in FIG. 3, followed by the MTT assay. […] MTT assay was carried out to monitor the viability of the cells. Values obtained for the cells without any treatments were kept as 100%. Different cancer cell lines, MCF-7 (breast cancer), H1299 (lung cancer), HepG2 (liver cancer), DU145 (prostate cancer), Caco2 (colon cancer) and AGS (gastric cancer) were obtained from American Type Culture Collection (ATCC). Normal breast epithelial cell line (MCF-10A) was used for comparison. The cells were maintained in the growth medium as described by ATCC. Approximately 10,000 cells were seeded onto a 96-well plate. Modified glucose compounds were added to the cells after 24 h of seeding. The cells were further cultured in the presence of the modified glucose compounds for up to 7 days. The medium was changed everyday along with the specified concentration of modified glucose. […] MTT assay was performed using the TACS™ MTT cell proliferation assay kit (Trevigen Inc, Md., USA). Briefly, after treatment of cells, 10 μl of MTT reagent was added and incubated at 37° C. for 4 h. […] The absorbance was measured in a standard plate reader at 570 nm.

MCF-7 cells [2] = test: Fluorescence imaging of cells labeled with GPB; assay type: cell-based, human; details: MCF-7, live fluorescence imaging after incubation and PBS wash
Experimental: They were washed with PBS before fluorescence imaging. Scale bar=500 μm. The MCF-7 cells were seeded on a 6-well plate at least 24 h prior to imaging. […] The cells were washed with PBS (without calcium and magnesium) thrice. Live imaging was performed with fluorescence microscopy. Metamorph (Molecular Devices, USA) and Image J (freeware from NIH, USA) were used for image capturing and processing.

tumor = details: animal studies, supplemental 2-DG; cited from earlier work
[3] = test system: SkBr3 (human breast cancer) cell line; details: SkBr3, concentration of 4 mM; cited from earlier work
H1299 = details: H1299, 200 μM, 3 days
Experimental: Human lung cancer cells (H1299) were treated for 3 days with 200 μM of modified glucose (GBrP). Control cells were prepared without treatment. Total RNA was extracted from the cells and reverse transcribed. A PCR array containing primers to identify the apoptotic pathway was used to identify the apoptosis pathway between control and treated cells in lung cancer cells.
Gene expression analysis was carried out to understand the apoptosis pathway during the modified glucose mediated cell death.

DU145 = details: DU145, 200 μM, 3 days
[4] = test system: different cancer cell lines; details: 200 μM, MTT, Table 1
Experimental: MTT assay was carried out to monitor the viability of the cells. Values obtained for the cells without any treatments were kept as 100%.
Different cancer cell lines, MCF-7 (breast cancer), H1299 (lung cancer), HepG2 (liver cancer), DU145 (prostate cancer), Caco2 (colon cancer) and AGS (gastric cancer) were obtained from American Type Culture Collection (ATCC). Normal breast epithelial cell line (MCF-10A) was used for comparison. The cells were maintained in the growth medium as described by ATCC. Approximately 10,000 cells were seeded onto a 96-well plate. Modified glucose compounds were added to the cells after 24 h of seeding. The cells were further cultured in the presence of the modified glucose compounds for up to 7 days. The medium was changed everyday along with the specified concentration of modified glucose.
MTT assay was performed using the TACS™ MTT cell proliferation assay kit (Trevigen Inc, Md., USA). Briefly, after treatment of cells, 10 μl of MTT reagent was added and incubated at 37° C. for 4 h. The cells were lysed using detergent for 4 h at room temperature. The absorbance was measured in a standard plate reader at 570 nm.

Compound: Glucose-PEG-BODIPY [GPB]
- competition of un-modified glucose with GPB binding (fluorescence intensity) (GLUT1): glucose competed with the GPB in binding to the GLUTs; also recorded: intensity of the fluorescence decreases with the increase in un-modified glucose
- dose-dependent effect on cell viability (MCF-7 cells [1]): gradual dose-dependent decrease in the cell viability
- localization of fluorescence in cells (MCF-7 cells [2]): localized on the plasma membrane of the cells

Compound: O=CC[C@@H](O)[C@H](O)[C@H](O)CO [2-DG, 2-deoxyglucose]
- tumor growth (tumor): growth of the tumor was inhibited
- apoptotic cells [3]: 50%

Compound: glucose-conjugated branched PEG [GBrP]
- apoptosis pathway gene expression, treated vs control (H1299): AKT1 and ABL1 were down regulated while APAF1 and TP53BP were upregulated
- apoptosis pathway gene expression, treated vs control (DU145): AKT1 and ABL1 were down regulated while APAF1 and TP53BP were upregulated
- inhibition of viability of various different cancer cell lines [4]: significantly inhibit the viability
